Read-outs that look alike come from different tables or passages of the source. Blank lines part the entries; values can stand above or below the compound they belong to.
How the values were obtained:
[1] = target: T1, cystine/glutamate transporter (Mus musculus, UniProt Q9WTR6); assay: cell-based
T1 sequence (Q9WTR6 1-502): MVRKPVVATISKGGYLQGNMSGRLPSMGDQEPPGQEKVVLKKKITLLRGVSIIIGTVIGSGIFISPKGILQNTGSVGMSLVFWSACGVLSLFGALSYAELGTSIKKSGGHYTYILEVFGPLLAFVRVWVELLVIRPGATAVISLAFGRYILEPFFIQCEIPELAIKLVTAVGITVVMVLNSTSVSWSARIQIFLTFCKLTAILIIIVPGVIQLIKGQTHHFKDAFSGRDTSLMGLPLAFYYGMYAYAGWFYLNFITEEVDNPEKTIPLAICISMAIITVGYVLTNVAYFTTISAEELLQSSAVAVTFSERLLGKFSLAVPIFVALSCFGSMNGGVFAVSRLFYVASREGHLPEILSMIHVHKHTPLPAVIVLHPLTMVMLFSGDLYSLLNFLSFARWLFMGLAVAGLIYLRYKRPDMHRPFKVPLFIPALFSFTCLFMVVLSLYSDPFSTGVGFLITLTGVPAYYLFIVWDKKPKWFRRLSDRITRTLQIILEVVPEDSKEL
T1 sequence (P10852 1-526 partner): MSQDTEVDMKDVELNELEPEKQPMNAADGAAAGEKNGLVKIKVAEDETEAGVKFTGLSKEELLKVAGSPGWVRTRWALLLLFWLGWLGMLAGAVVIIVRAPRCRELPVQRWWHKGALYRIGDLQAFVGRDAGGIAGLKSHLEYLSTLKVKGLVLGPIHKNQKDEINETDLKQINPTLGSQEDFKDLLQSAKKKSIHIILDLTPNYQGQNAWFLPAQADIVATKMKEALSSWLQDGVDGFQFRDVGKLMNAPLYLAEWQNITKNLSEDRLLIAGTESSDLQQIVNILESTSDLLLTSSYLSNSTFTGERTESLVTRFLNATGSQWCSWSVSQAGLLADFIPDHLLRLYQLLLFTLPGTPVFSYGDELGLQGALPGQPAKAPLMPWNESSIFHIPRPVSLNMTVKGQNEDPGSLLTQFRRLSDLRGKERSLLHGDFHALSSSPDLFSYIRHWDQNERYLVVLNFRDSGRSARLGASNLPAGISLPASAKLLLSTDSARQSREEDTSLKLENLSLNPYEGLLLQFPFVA

[2] = target: T1, cystine/glutamate transporter; assay: Screen of unlabeled compounds for competition with 3H-L-ASU uptake (Example 3); format: cell-based; design: endogenous in cells; conditions: read-out: inhibition of ^3H-L-ASU uptake
[3] = target: T1, cystine/glutamate transporter; assay: 3H-L-Asu uptake in EL4 cells with or without DEM and with transporter inhibitors (Example 1); format: cell-based; design: endogenous in cells; host or cells: EL4 mouse lymphoma cells, with or without diethylmaleate (DEM) treatment
Description: Mouse lymphoma cells (EL4) were cultured with or without 100 μM diethylmaleate for 24 hours, washed in phosphate buffered saline (PBS) divided into aliquots of 5×10^6 cells and incubated with [^3H]-L-2-aminosuberic acid (^3H-L-Asu) without or with inhibitors of the cystine/glutamate transporter for 15 minutes. Cells were then washed 3 times and collected in a 1 ml volume of 1M HCl and transferred to a scintillation vial. 12 ml of Ready Gel scintillation fluid was added to each sample and cell uptake was determined by scintillation counting using a Perkin Elmer Tri-Carb Liquid Scintillation Analyzer.

[4] = target: T1, cystine/glutamate transporter; conditions: read-out: IC50 for inhibition of ^3H-L-GLU uptake; DEM treated EL4 cells; separate set of experiments
[5] = system: EL4 xenograft tumor tissue slices; assay: Ex vivo uptake in EL4 xenograft tumor tissue slices (Example 5); format: cell-based, mouse; conditions: 0.33 μCi, 30 minutes, agents matched for specific activity and radioactive dose
Description: We compared uptake of ^3H-ASU in tumor tissue ex vivo with uptake of ^3H-FDG, a tritiated form of the common ^18F-FDG imaging agent. the two agents were matched for specific activity and radioactive dose. 0.33 μCi of agent was incubated with equivalent aliquots of EL4 xenograft tumor tissue slices for 30 minutes (tumors processed with three passes on a McIlwain Tissue chopper, at 500 um steps, and washed with fresh buffer). Slices where washed three times, lysed with 1M HCl and evaluated by scintillation counting.

[6] = target: T1, cystine/glutamate transporter; assay: Uptake of labeled compounds in DEM treated EL4 cells with or without SSZ (Example 2); format: cell-based; design: endogenous in cells; host or cells: EL4 mouse lymphoma cells, with or without diethylmaleate (DEM) treatment; conditions: for inhibition of uptake by SSZ: 500 μM SSZ; for Uptake relative to ^3H-GLU: 0.33 μCi; for SSZ inhibition (%): uptake of the labeled compound with 500 μM SSZ
Description: 5×10^6 DEM treated EL4 cells were incubated with 0.33 μCi of either [^3H]-L-ASU, [^3H]-L-GLU or [^35S]-L-Cystine (with or without 500 μM SSZ) for 15 minutes before being washed three times in PBS and uptake was analyzed via liquid scintillation counting.

[7] = unlabeled competitor at high concentration (2.5 mM)

SMILES: N[C@H](CCCCCC(=O)O)C(=O)O [D-ASU]
IC50 [1]: 36.2 µM | inhibition at 2500 µM [2]: > 90%

SMILES: N[C@H](CCC[C@H](N)C(=O)O)C(=O)O [DiAPA, diaminopimelic acid]
inhibition at 2500 µM [2, 7]: < 45%

SMILES: N[C@@H](CCCCCC(=O)O)C(=O)O [L-ASU, L-aminosuberic acid]
inhibition at 2500 µM ([3]; EL4, read-out: inhibition of ^3H-L-Asu uptake): > 95% | IC50 [1]: 2.9 µM | inhibition at 2500 µM [2]: > 90%

SMILES: N[C@@H](CCC(=O)O)C(=O)O [L-GLU, L-glutamate]
IC50 [4]: 4.7 µM

SMILES: N[C@@H](CSSC[C@H](N)C(=O)O)C(=O)O [^35S-Cystine, [^35S]-L-Cystine]
inhibition of uptake by SSZ [6]: approximately ⅔ | Uptake relative to ^3H-GLU ([6]; 15 minutes): 168.8 (±2.0) | SSZ inhibition (%) ([6]; 15 minutes): 68.7 (±1.76) %

More lines, main results first:

IC50 [1]: 23.9 µM | inhibition at 2500 µM [2, 7]: > 90%
SMILES: N[C@@H](CCCC(=O)O)C(=O)O [L-AAA, L-aminoadipic acid]

^3H-L-Asu uptake in cells exposed to oxidative stress ([3]; EL4 cells, 100 μM diethylmaleate (DEM) 24 hours vs without, 15 minutes incubation): increased | inhibition of uptake by SSZ [6]: almost completely inhibited | Uptake relative to ^3H-GLU ([6]; 15 minutes): 447.0 (±22.1) | uptake efficiency relative to L-GLU uptake ([6]; 15 minutes): approximately 4.5 times | SSZ inhibition (%) ([6]; 15 minutes): 95.8 (±0.17) %
SMILES: [3H]C(CCC(=O)O)C([3H])C[C@H](N)C(=O)O (stereo partly drawn) [^3H-Asu, (S)-2-amino 4,5-^3H-suberic acid]
more uptake than ^3H-FDG [5]: 70%

inhibition at 2500 µM [2, 7]: < 45%
SMILES: O=C(O)CCCCCCC(=O)O [suberic acid]

inhibition at 500 µM ([3]; inhibitor 500 μM, EL4 cells, 15 minutes): > 95%
SMILES: O=C(O)c1cc(/N=N/c2ccc(S(=O)(=O)Nc3ccccn3)cc2)ccc1O [sulfasalazine]

inhibition at 2500 µM [2, 7]: < 45%
SMILES: N[C@@H](CCC(=O)NCC(=O)O)C(=O)O [γ-glutamyl-glycine]

Reference: US8784774B2, “Labeled molecular imaging agents and methods of use” (General Electric Company, priority 2011, dated 2014)
